According to patent EP4722219A1 (Gan & Lee Pharmaceuticals Co., Ltd., priority 2023, dated 2024):

Assays:
Format in all cases: cell-based
ERα [1] = target: T1, ERα (Homo sapiens, UniProt P03372); test: ERα degradation in T-47D cells (Western blot); conditions: 4 hours
T1 sequence (P03372 1-595): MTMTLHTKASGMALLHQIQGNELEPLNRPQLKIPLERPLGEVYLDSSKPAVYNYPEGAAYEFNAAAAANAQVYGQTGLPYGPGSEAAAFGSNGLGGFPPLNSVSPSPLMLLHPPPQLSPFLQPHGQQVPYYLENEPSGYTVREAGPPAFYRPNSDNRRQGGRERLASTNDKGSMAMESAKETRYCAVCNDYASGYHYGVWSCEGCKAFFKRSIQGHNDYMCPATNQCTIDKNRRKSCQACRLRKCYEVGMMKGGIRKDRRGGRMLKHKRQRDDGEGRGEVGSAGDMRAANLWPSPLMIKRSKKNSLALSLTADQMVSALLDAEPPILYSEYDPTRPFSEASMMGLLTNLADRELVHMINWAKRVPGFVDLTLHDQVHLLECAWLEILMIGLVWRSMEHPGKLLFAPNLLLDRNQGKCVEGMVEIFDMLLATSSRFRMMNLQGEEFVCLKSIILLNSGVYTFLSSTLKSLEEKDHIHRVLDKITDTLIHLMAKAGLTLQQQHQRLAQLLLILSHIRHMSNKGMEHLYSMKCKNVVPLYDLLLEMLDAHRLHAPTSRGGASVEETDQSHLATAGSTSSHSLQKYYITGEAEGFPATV
Procedure, shortened: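 ERα was quantified by immunoblot of RIPA lysates (20 µg total protein), normalised to an internal reference band, and degradation was expressed against control. Lysates came from T-47D cells plated at 3×10^5 cells/well and dosed 4 hours at 37°C with compound at 0.15-1000 nM final concentration.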

T-47D cells = test: Inhibition of cell proliferation in T-47D cells (CCK-8); conditions: 6 days treatment, CCK-8 cell viability
Procedure, shortened: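 Viability by CCK-8 after a 6-day, 37 °C/5% CO2 exposure of T-47D cells (3,000/well, RPMI-1640 + 10% FBS) to graded PROTAC concentrations. Inhibition rates gave the IC50.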

ERα [2] = target: T1, ERα; test: ERα degradation in MCF-7 cells (Western blot); design: host or cells: MCF-7; conditions: 4 hours
Procedure, shortened: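 ERα degradation was quantified by immunoblot densitometry, ERα signal divided by internal-reference signal and compared with control. Compounds were applied to MCF-7 cells for 4 hours at final concentrations of 0.15–1000 nM, with 20 µg total protein loaded per lane.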

MCF-7 cells = test: Inhibition of cell proliferation in MCF-7 cells (CCK-8); conditions: MCF-7 cell proliferation, 6 days treatment
Procedure, shortened: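 IC50 from CCK-8 viability-based inhibition after 6-day treatment of MCF-7 cells (800 cells/well, 10% FBS DMEM, 37 °C, 5% CO2) with serially varied compound concentrations.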

Row | Structure (SMILES) | Degradation rate of ERα in T-47D cells (%) (ERα [1]; 1nM) | Degradation rate of ERα in T-47D cells (%) (ERα [1]; 10nM) | IC50 (T-47D cells; Homo sapiens, T47D, 144 h) [nM] | Degradation rate of ERα in MCF-7 cells (%) (ERα [2]; 1nM) | Degradation rate of ERα in MCF-7 cells (%) (ERα [2]; 10nM) | IC50 (MCF-7 cells; Homo sapiens, MCF7, 144 h) [nM] | IC50 (T-47D cells) [nM] | IC50 (MCF-7 cells) [nM]
1 | CN(c1ccc2c(c1)COC[C@H]1CN(CC3CCC(OC4CCN(c5ccc([C@@H]6c7ccc(O)cc7CC[C@@H]6c6ccccc6)cc5)CC4)CC3)CCN21)C1CCC(=O)NC1=O (stereo partly drawn) [ER-P-52, 3-(((R)-3-((4-((1-(4-((1R,2S)-6-hydroxy-2-phenyl-1,2,3,4-tetrahydronaphthalen-1-yl)phenyl)piperidin-4-yl)oxy)cyclohexyl)methyl)-1,2,3,4,4a,5-hexahydro-7H-benzo[e]pyrazino[2,1-c][1,4]oxazepin-9-yl)(methyl)amino)piperidine-2,6-dione] | 6 | 6 | 248 | -2 | 7 | 854 | – | –
2 | CN(c1ccc2c(c1)COC[C@H]1CN(CC3CCC(OC4CCN(c5ccc([C@@H]6c7ccc(O)cc7CC[C@@H]6c6ccccc6)cc5)CC4)CC3)CCN21)C1CCC(=O)NC1=O (stereo partly drawn) [ER-P-53, 3-(((R)-3-((4-((1-(4-((1R,2S)-6-hydroxy-2-phenyl-1,2,3,4-tetrahydronaphthalen-1-yl)phenyl)piperidin-4-yl)oxy)cyclohexyl)methyl)-1,2,3,4,4a,5-hexahydro-7H-benzo[e]pyrazino[2,1-c][1,4]oxazepin-9-yl)(methyl)amino)piperidine-2,6-dione] | 18 | 33 | – | 10 | 21 | – | 252 | 1310
3 | Cn1c(=O)n(C2CCC(=O)NC2=O)c2ccc3c(c21)OCC31CCN(C[C@H]2CC[C@@H](OC3CCN(c4ccc([C@@H]5c6ccc(O)cc6CC[C@@H]5c5ccccc5)cc4)CC3)CC2)CC1 (stereo partly drawn) [ER-P-54, 3-(1'-(((1S,4S)-4-((1-(4-((1R,2S)-6-hydroxy-2-phenyl-1,2,3,4-tetrahydronaphthalen-1-yl)phenyl)piperidin-4-yl)oxy)cyclohexyl)methyl)-1-methyl-2-oxo-1,2-dihydro-3H,7H-spiro[benzofuro[6,7-d]imidazole-6,4'-piperidin]-3-yl)piperidine-2,6-dione] | 67 | 81 | 0.15 | 50 | 76 | 1020 | – | –
4 | Cn1c(=O)n(C2CCC(=O)NC2=O)c2cc3c(cc21)C1(CCN(C[C@H]2CC[C@@H](OC4CCN(c5ccc([C@@H]6c7ccc(O)cc7CC[C@@H]6c6ccccc6)cc5)CC4)CC2)CC1)CO3 (stereo partly drawn) [ER-P-55, 3-(1'-(((1S,4S)-4-((1-(4-((1R,2S)-6-hydroxy-2-phenyl-1,2,3,4-tetrahydronaphthalen-1-yl)phenyl)piperidin-4-yl)oxy)cyclohexyl)methyl)-1-methyl-2-oxo-1,2-dihydro-3H,6H-spiro[benzofuro[5,6-d]imidazole-7,4'-piperidin]-3-yl)piperidine-2,6-dione] | 62 | 87 | 0.18 | 35 | 69 | 113 | – | –
5 | O=C1CCC(n2c(=O)n3c4c(cccc42)N(C[C@H]2CC[C@@H](OC4CCN(c5ccc([C@@H]6c7ccc(O)cc7CC[C@@H]6c6ccccc6)cc5)CC4)CC2)CC3)C(=O)N1 (stereo partly drawn) [ER-P-56, 3-(6-(((1S,4s)-4-((1-(4-((1R,2S)-6-hydroxy-2-phenyl-1,2,3,4-tetrahydronaphthalen-1-yl)phenyl)piperidin-4-yl)oxy)cyclohexyl)methyl)-2-oxo-5,6-dihydro-4H-imidazo[1,5,4-de]quinoxalin-1(2H)-yl)piperidine-2,6-dione] | 22 | 24 | 42.2 | -4 | 16 | 2460 | – | –
6 | O=C1CCC(N2Cc3c(ccc4c3OCC43CCC4(CCN(C5CCC6(CC5)CCN(c5ccc([C@@H]7c8ccc(O)cc8CC[C@@H]7c7ccccc7)cc5)CC6)CC4)CC3)C2=O)C(=O)N1 (stereo partly drawn) [ER-P-57] | 12 | 68 | 3.19 | 3 | 62 | 12.7 | – | –
7 | O=C1CCC(N2Cc3c(ccc4c3OCC43CCC4(CCN(C5CCN(c6ccc([C@@H]7c8ccc(O)cc8CC[C@@H]7c7ccccc7)cc6)CC5)CC4)CC3)C2=O)C(=O)N1 (stereo partly drawn) [ER-P-58] | 35 | 71 | 2.19 | 42 | 69 | 12.8 | – | –
8 | Cn1c(=O)n(C2CCC(=O)NC2=O)c2cc3c(cc21)C1(CCN(C2CCC4(CC2)CN(c2ccc([C@@H]5c6ccc(O)cc6CC[C@@H]5c5ccccc5)cc2)C4)CC1)CO3 (stereo partly drawn) [ER-P-59] | 40 | 63 | 0.96 | 14 | 18 | 0.875 | – | –
9 | Cn1c(=O)n(C2CCC(=O)NC2=O)c2cc3c(cc21)C1(CCN(C2CCC4(CC2)CCN(c2ccc([C@@H]5c6ccc(O)cc6CC[C@@H]5c5ccccc5)cc2)CC4)CC1)CO3 (stereo partly drawn) [ER-P-60] | 21 | 51 | 1.41 | 14 | 36 | 0.362 | – | –
10 | Cn1c(=O)n(C2CCC(=O)NC2=O)c2cc3c(cc21)C1(CCN(CC2CCC4(CC2)CN(c2ccc([C@@H]5c6ccc(O)cc6CC[C@@H]5c5ccccc5)cc2)C4)CC1)CO3 (stereo partly drawn) [ER-P-61] | 22 | 43 | 1.12 | 9 | 18 | 28.8 | – | –
11 | Cn1c(=O)n(C2CCC(=O)NC2=O)c2cc3c(cc21)C1(CCN(CC2CCC4(CC2)CCN(c2ccc([C@@H]5c6ccc(O)cc6CC[C@@H]5c5ccccc5)cc2)CC4)CC1)CO3 (stereo partly drawn) [ER-P-62] | 13 | 52 | 2.64 | 14 | 39 | 183 | – | –
12 | Cn1c(=O)n(C2CCC(=O)NC2=O)c2ccc3c(c21)OCC31CCN(CC2CCN(C(=O)C3CCN(c4ccc([C@@H]5c6ccc(O)cc6CC[C@@H]5c5ccccc5)cc4)CC3)CC2)CC1 (stereo partly drawn) [ER-P-63, 3-(1'-((1-(1-(4-((1R,2S)-6-hydroxy-2-phenyl-1,2,3,4-tetrahydronaphthalen-1-yl)phenyl)piperidine-4-carbonyl)piperidin-4-yl)methyl)-1-methyl-2-oxo-1,2-dihydro-3H,7H-spiro[benzofuro[6,7-d]imidazole-6,4'-piperidin]-3-yl)piperidine-2,6-dione] | 56 | 65 | 1.15 | 53 | 56 | 3750 | – | –
